The record followed here is article PMC6853638, “TMC1 is an essential component of a leak channel that modulates tonotopy and excitability of auditory hair cells in mice” (eLife, 2019).

The structures appear in SMILES notation. Residue numbers refer to the chain shown, from its start. Where “and” joins values, the source holds several entries; their conditions need not be identical. Identical values can stand only once.

Experiment [1] deals with T1, cysteine-substituted TMC1 constructs (Mus musculus, UniProt Q8R4P5, D528C).
T1 construct: control full-length TMC1 (TMC1_WT); expressed in transfected cells; host or cells: Tmc1-knockout mouse OHCs, injectoporation
T1 sequence (Q8R4P5 1-757 D528C): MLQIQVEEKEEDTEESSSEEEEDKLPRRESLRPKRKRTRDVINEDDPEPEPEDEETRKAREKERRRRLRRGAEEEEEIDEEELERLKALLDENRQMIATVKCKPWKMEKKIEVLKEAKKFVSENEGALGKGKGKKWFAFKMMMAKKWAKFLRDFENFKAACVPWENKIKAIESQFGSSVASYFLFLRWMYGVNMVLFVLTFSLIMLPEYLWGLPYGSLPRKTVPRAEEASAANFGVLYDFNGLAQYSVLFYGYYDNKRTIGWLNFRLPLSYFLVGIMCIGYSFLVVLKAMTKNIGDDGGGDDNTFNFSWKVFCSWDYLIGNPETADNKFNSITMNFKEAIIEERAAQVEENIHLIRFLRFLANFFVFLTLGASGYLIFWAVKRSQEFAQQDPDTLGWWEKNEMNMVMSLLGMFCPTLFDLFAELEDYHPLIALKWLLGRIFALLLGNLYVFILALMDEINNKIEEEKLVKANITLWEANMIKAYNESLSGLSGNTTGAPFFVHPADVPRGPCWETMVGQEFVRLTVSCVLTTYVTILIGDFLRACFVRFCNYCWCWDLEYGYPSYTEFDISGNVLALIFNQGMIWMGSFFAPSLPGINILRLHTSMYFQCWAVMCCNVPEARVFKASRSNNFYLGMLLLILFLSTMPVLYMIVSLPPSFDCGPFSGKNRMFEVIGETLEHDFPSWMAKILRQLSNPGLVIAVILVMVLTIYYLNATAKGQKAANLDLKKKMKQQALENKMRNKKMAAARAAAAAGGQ
The experiment is described as follows: Background current before and after MTSET treatment in Tmc1-knockout OHCs expressing cysteine-substituted TMC1. The format is cell-based. Conditions: Tmc1-knockout OHCs expressing TMC1-D528C, individual cells. The method, then: (§1) Mouse Tmc1 and Tmc2 cDNAs were cloned into CMV-Script and pCDNA3.1- vectors, respectively. To obtain the Tmc1-deafness vector and amino-acid-substituted Tmc1 constructs, specific primers were designed and used for PCR (Supplementary File 1). […] In brief, the organ of Corti was isolated from P3 mice and cut into three pieces in Dulbecco’s modified Eagle’s medium/F12 with 1.5 μg/ml ampicillin. For electroporation, a glass pipette (2 μm tip diameter) was used to deliver cDNA plasmids (0.2 μg/μl in 1 × Hanks' balanced salt solution) to hair cells in the sensory epithelium. EGFP was used as an indicator for the selection of transfected hair cells. A series of three pulses at 60 V lasting 15 ms at 1 s intervals was applied to cochlear tissues by an electroporator (ECM Gemini X2, BTX, CA). The cochlear tissues were cultured for 1 day in vitro and then used for electrophysiological recording.
(§2) All experiments were performed at room temperature (20–25°C). Briefly, the basilar membrane with hair cells was acutely dissected from neonatal mice. […] The acutely isolated or cultured basilar membrane was used for electrophysiological recording within 1 h. […] Hair cells were recorded with a patch-clamp amplifier (EPC 10 USB and Patchmaster software, HEKA Elektronik, Lambrecht/Pfalz, Germany).
(§3) The sampling rate was 1 kHz for leak current recording, 50 kHz for the IV protocol and current-clamp recording, and 100 kHz for unitary channel recording. The voltage-clamp used a –70 mV holding potential, and the current-clamp was held at 0 pA. Only recordings with a current baseline <20 pA in NMDG solution were used for statistical analysis.

Experiment [2] has as its target T2, cysteine-substituted TMC1 constructs (Mus musculus, UniProt Q8R4P5, N447C).
T2 construct: control full-length TMC1 (TMC1_WT); expressed in transfected cells; host or cells: Tmc1-knockout mouse OHCs, injectoporation
T2 sequence (Q8R4P5 1-757 N447C): T1 sequence (Q8R4P5 1-757 D528C) with N447C, C528D
Described as above. Conditions: Tmc1-knockout OHCs expressing TMC1-N447C, individual cells. The format is cell-based. The method, then:
as §1, §2, §3

Turning to `C[N+](C)(C)CCSS(C)(=O)=O.[Br-]` [MTSET, 2-(trimethylammonium)ethyl methanethiosulfonate, bromide], the “amplitude of the background current after MTSET treatment” value in experiment [1] is -23.6585 and -22.824 and -11.63 and -11.1296; in experiment [2] it was -12.9811 and -13.0886 and -13.798 and -25.7685 and -27.4817 and -21.0828.
